Measured values taken from ChEMBL document CHEMBL1157539, “Thousands of chemical starting points for antimalarial lead identification” (Nature, 2010).

These compounds were tested on Plasmodium falciparum (assay: GSK_TCMDC: Inhibition of Plasmodium falciparum 3D7 in whole erythrocytes, using parasite LDH activity as an index of growth.). Settings: Plasmodium falciparum, 3D7.
Format: functional, organism-based

Row | SMILES | XC50 [µM]
1 | Cc1ccc(Nc2nc(N/N=C/c3cccc([N+](=O)[O-])c3)nc(Nc3ccccc3)n2)c(C)c1 | 0.626
2 | CCN(CC)CCN(Cc1ccc(-c2ccc(C(F)(F)F)cc2)cc1)C(=O)Cn1c(CCc2cccc(F)c2F)nc(=O)c2cc(F)c(F)cc21 | 0.833
3 | CCN(CC)CCN(Cc1ccc(-c2ccc(C(F)(F)F)cc2)cc1)C(=O)Cn1c(CCc2ccc(F)c(F)c2)cc(=O)c2ccccc21 | 0.89
4 | Nc1nc(N)c2cc(S(=O)(=O)c3ccc4ccccc4c3)ccc2n1 | 0.0368
5 | COc1cc(Cc2cnc(N)nc2N)cc(CC(C)O)c1O (configuration not stated) | 0.843
6 | COc1ccc(-c2ccc(NC(=O)c3ccc(Cl)cc3)cc2)cc1CN(C)CCN(C)C | 0.675
7 | Cc1cccc2nc(-c3cccc(-c4ccc(CN5CCCC5CN)cc4)c3)[nH]c12 (configuration not stated) | 0.76
8 | O=C(Nc1ccc(OC2CCN(Cc3ccccc3)C2)c(Cl)c1)c1ccsc1 (configuration not stated) | 0.735
9 | COCCCNC(=O)C1CCN(C(c2ccc(Cl)cc2)c2ccc(Cl)cc2)CC1 | 0.92
10 | CN(C)CCN(C)Cc1ccc(-c2ccc3c(Nc4ccc(Cl)cc4F)ccnc3c2)o1 | 0.36
11 | O=C1CCCN1CCCNCc1ccc(-c2cccc(-c3nc4ccccc4[nH]3)c2)cc1 | 1.02
12 | O=C(NCCN1CCCCC1)c1cccc(Nc2nccc(Nc3ccc(Oc4ccccc4)cc3)n2)c1 | 0.273
13 | FC(F)(F)c1ccc2[nH]c(-c3cccc(-c4cccc(CNCCN5CCNCC5)c4)c3)nc2c1 | 0.937
14 | CCOc1cc(C(=O)NC2CCN(Cc3ccccc3)C2)ccc1-c1nc2cc(Cl)ccc2[nH]1 (configuration not stated) | 1.01
15 | Oc1cc2c(cc1CN1CCN(Cc3ccc(Cl)s3)CC1)CCC2 | 0.616
16 | COc1ccc2ncc(F)c(CCN3CCC(NCc4cc(F)c5c(c4)OCCO5)CC3)c2n1 | 0.346
17 | Nc1nc(N)c2c(ccc3c2ccn3Cc2ccc(Br)cc2)n1 | 0.0032
18 | COc1ccc(CNC2Cc3ccccc3C2)cc1-c1ccc(S(=O)(=O)NCCN2CCCC2)s1 | 0.195
19 | Cc1cc(N[C@@H](Cc2ccccc2)C(=O)NCCOc2ccccc2)nc(NCc2ccccc2C)n1 | 0.711
20 | CC[C@H]1CN2CC[C@@H]1C[C@H]2[C@H](O)c1cc(N2CCC(O)CC2)nc2ccc(OC)cc12 | 0.166
21 | CN(C)CC1CCCN1Cc1ccccc1-c1cnn(C)c(=O)c1Oc1cccc(C#N)c1 (configuration not stated) | 1.34
22 | COc1ccc(Br)cc1/C=C/C(=O)Nc1ccc(C2CCN(C)CC2)cc1 | 0.502
23 | CC(C)C[C@@H](/C=N/N1CCOC1=O)NC(=O)[C@H](CC(C)C)NC(=O)c1ccc(F)cc1 | 1.17
24 | COc1ccccc1C1CCN(CCN2CCC(NC(=O)c3ccc(-c4ccc(C#N)cc4)cc3)CC2)CC1 | 0.792
25 | Cc1cccc2nc(-c3cccc(-c4cccc(NC(=O)Nc5cccc(C#N)c5)c4)c3)[nH]c12 | 0.104

Row | SMILES | XC50 [µM]
26 | Cc1cc(NC(=O)NCCN2CCC(NC(=O)c3ccc(Cl)cc3)CC2)c2ccccc2n1 | 0.381
27 | CC(C)(C)c1ccc(CN(C[C@@H](O)CNS(=O)(=O)c2cc(Cl)cc(Cl)c2)C(C)(C)C)cc1 | 0.935
28 | COc1ccc(C(c2ccc(N(C)C)cc2)c2ccc(N(C)C)cc2)cc1 | 0.0648
29 | COc1ccc(NC(=O)NC2CCN(CCCCCNC(=O)/C=C/c3ccc(Cl)c(Cl)c3)C2)c(OC)c1 (configuration not stated) | 0.823
30 | N#Cc1c(N)n(CCc2ccc(F)cc2)c2nc3ccccc3nc12 | 0.973
31 | O=C(Nc1ccc(Cl)cc1)c1ccc(CN2CCCN(CC3CCCCC3)CC2)cc1 | 0.22
32 | CCCC(C)C(=O)N1CCOC(COCc2cccc(C(F)(F)F)c2)(c2ccc(Cl)cc2)C1 (configuration not stated) | 0.403
33 | O=C(NC1CCN(c2ccc(F)cc2[N+](=O)[O-])CC1)c1cccs1 | 0.675
34 | CC(=O)Oc1c(C(=O)C2CCC(C(C)(C)C)CC2)c(OC(C)=O)c2ccccc2c1OC(C)=O (configuration not stated) | 0.268
35 | Cc1cnc(CNCc2ccc(S(=O)(=O)Nc3ccc(Oc4cccc(Cl)c4)cc3)cc2)cn1 | 0.766
36 | C[C@H](CNc1ccnc(Nc2ccc3[nH]c(=O)[nH]c3c2)n1)c1ccccc1 | 1.31
37 | Cc1cc(N[C@@H](CC(C)C)C(=O)Nc2ccccc2)nc(Nc2ccccc2)n1 | 0.728
38 | CO/C(=C\C=C\c1cc2cc(Cl)c(Cl)cc2[nH]1)C(=O)NCCCN1CC(C)N(C)CC1C (configuration not stated) | 1.13
39 | CC1=C(C(=O)Nc2cc3cn[nH]c3cc2F)C(c2ccc(Cl)c(NS(C)(=O)=O)c2)CC(=O)N1 (configuration not stated) | 0.482
40 | COCCNC(=O)c1ccc(OC2CCN(Cc3ccc(F)c(F)c3)CC2)c(Cl)c1 | 1.49
41 | COc1cc(NC(=O)N2CCc3ccc(OCCN4CCCCC4)cc32)cc(C(F)(F)F)c1 | 0.266
42 | O=C(NCCCCN1CCC(c2c[nH]c3ccccc23)CC1)c1sc(-c2ccc(C(F)(F)F)cc2)nc1CO | 1.2
43 | N#CCc1ccc(Nc2nccc(Nc3ccc(Oc4ccccc4)cc3)n2)cc1 | 0.805
44 | COc1ccc2nccc([C@@H](O)CN3CCC(NCc4cc5c(Cl)cccc5[nH]4)CC3)c2c1 | 0.155
45 | Nc1nc(N)c2c(n1)CCc1cc(Br)ccc1-2 | 1.13
46 | O=C(/C=C/c1ccc(Cl)c(Cl)c1)NCCCCCN1CCC(NC(=S)Nc2ccc(F)cc2F)CC1 | 0.805
47 | Clc1ccc(Nc2nc3nonc3nc2Nc2ccc(Cl)c(Cl)c2)cc1 | 0.645
48 | Cc1cccc2nc(-c3ccc(-c4ccc(CN5CCN(c6ccncc6)CC5)cc4)s3)[nH]c12 | 0.114
49 | CC(=O)C1(c2ccccc2)CCN(CCC2(c3ccc(Cl)c(Cl)c3)CN(C(=O)C3CCCCC3)CCO2)CC1 (configuration not stated) | 0.314
50 | Cc1cccc2c1NC(=O)/C2=N/NC(=S)N(C)C | 0.755

Row | SMILES | XC50 [µM]
51 | CCC(C)NC(=O)Nc1ccc(-c2cccc(-c3nc4cccc(C)c4[nH]3)c2)cc1 (configuration not stated) | 0.189
52 | O=C(/C=C/c1ccc(Cl)c(Cl)c1)NCC(CCCN1CCC(c2c[nH]c3ccccc23)CC1)c1ccccc1 (configuration not stated) | 0.813
53 | O=C(C=Cc1ccc(Cl)c(Cl)c1)NCCCCCN1CCC(CCCNS(=O)(=O)c2ccc(F)cc2)CC1 | 1.02
54 | CN1CCN(CCCNc2ncc3c(-c4ccc(NC(=O)Nc5cc(C(F)(F)F)ccc5F)c(F)c4)nn(C)c3n2)CC1 | 0.859
55 | CC(C)Sc1nc2c(c(=O)n1CCc1ccccc1)C1(CCCCC1)Cc1ccccc1-2 | 1.87
56 | CNCCNCc1cccc(-c2cccc(-c3nc4cc(F)ccc4[nH]3)c2)c1 | 0.67
57 | Fc1ccc2[nH]c(-c3ccc(-c4ccc(CNCCc5cccnc5)cc4)s3)nc2c1 | 0.236
58 | Oc1ccc(CCNCCCCNCCc2ccc(Cl)cc2)cc1O | 0.843
59 | COc1c(C2CCN(CCCCNC(=O)c3cc(-c4ccc(Cl)cc4)oc3C)CC2)ccc2c1CCCC2 | 0.882
60 | COc1ccc(N2C(N)=NC(N)=NC2(C)C)cc1 | 0.113
61 | O=C(Nc1cccc(-c2cccc(-c3ccc(F)cc3)n2)c1)c1ccc([N+](=O)[O-])o1 | 0.361
62 | O=C(Nc1cccc(-c2ccc(-c3nc4cc(F)ccc4[nH]3)cc2)c1)c1cccnc1 | 0.612
63 | CC(C)C[C@@H](NC(=O)OC(C)(C)C)C(=O)Nc1ccc(Cc2ccc(NC(=O)[C@@H](CC(C)C)NC(=O)OC(C)(C)C)cc2)cc1 | 0.207
64 | O=C(NCc1ccccc1)c1ncn(CCCN2CCC(N3CCCC3)CC2)c1-c1ccc(Cl)c(Cl)c1 | 1.12
65 | Fc1cccc(C=NN=c2cc[nH]c3ccccc23)c1 | 0.839
66 | CCCN(CCC)CCCNc1ccc(C(=O)Nc2ccc(C)c(F)c2)cc1[N+](=O)[O-] | 0.539
67 | O=C(NC1CCN(Cc2ccc(F)cc2)CC1)c1ccc(-c2cccc(C(F)(F)F)c2)s1 | 1.36
68 | O=C(N[C@@H](CC1CCCCC1)C(=O)NCCN1CCCC1)c1ccc(O)c(-c2cccc(C(F)(F)F)c2)c1 | 0.76
69 | O=C(NCC1CCN(Cc2ccc3c(c2)OCCO3)C1)c1cc(-c2ccccc2F)cs1 (configuration not stated) | 1.02
70 | O=C(/C=C/c1ccc(F)c(Br)c1)NCCCCCN1CCC(c2c[nH]c3ccccc23)CC1 | 0.864
71 | O=c1cc(NCCCNCc2ccc(C(F)(F)F)s2)[nH]c2ccccc12 | 0.2
72 | CN1CCCN(c2ccnc3cc4c(cc23)N(C(=O)c2ccc(C(F)(F)F)cc2)CC4)CC1 | 0.794
73 | CCN(CCCN1CCCCC1)c1cc(C)nc(Nc2ccc(C)cc2C)n1 | 0.351
74 | CCN(CC)CCCC(C)N/C(=N\c1ccccc1Br)Nc1ccc(C#N)cc1O (configuration not stated) | 1.04
75 | Nc1ncc(-c2ccc3[nH]ccc3c2)c2ccc(-c3ccncc3)cc12 | 0.542

Row | SMILES | XC50 [µM]
76 | O=C1SC(=Cc2ccc(O)c(O)c2)C(=O)N1c1ccccc1 | 1.2
77 | CCc1cccc(-c2cc(N)n(C)c3nc(N)nc(=O)c2-3)c1 | 1.12
78 | CCN(CC)C(=O)C1CCCN(C(=O)Nc2cc(C(F)(F)F)cc(C(F)(F)F)c2)C1 (configuration not stated) | 0.996
79 | CCC[C@@H]([C@@H](CC1CCCCC1)C(=O)N[C@H](C(=O)Nc1nccs1)[C@H](C)O)N(O)C=O | 0.148
80 | COc1cccc(-c2ccc3c(-c4cccc(S(C)(=O)=O)c4)cnc(N)c3c2)c1 | 0.874
81 | CC1(C)CCCC(=Cc2ccc(Br)cc2)C1(O)Cn1ccnc1 (configuration not stated) | 0.791
82 | CC(=O)Nc1cccc(Nc2nccc(Nc3ccc(Oc4ccccc4)cc3)n2)c1 | 0.745
83 | O=C(Nc1ccc(-c2nc3ccccc3[nH]2)cc1)c1cnc(Cl)c(Cl)c1 | 0.728
84 | O=C(Nc1cccc(F)c1)N1CCC(NS(=O)(=O)c2ccc(Br)cc2)CC1 | 0.979
85 | FC(F)(F)c1ccc2[nH]c(-c3ccc(-c4ccc(CNCCN5CCNCC5)cc4)cc3)nc2c1 | 1.12
86 | COc1cc2c(cc1C(F)(F)F)N(C(=O)Nc1cc(OC(F)(F)F)cc(-c3cccnc3)c1)CC2 | 0.0415
87 | CCCC(=O)c1cnc2c(I)cccc2c1Nc1ccccc1C | 1.16
88 | CSC1=NC(=Nc2ccccc2C)C2(CCC(C(C)(C)C)CC2)N1c1ccccc1Cl (configuration not stated) | 0.8
89 | O=C(NC1CC1)c1cnc(N2CCC(c3ccccc3)CC2)c(Cl)c1 | 0.851
90 | COc1ccc(Nc2cc(C)c3cc(NC(=O)c4ccncc4)ccc3n2)cc1 | 0.908
91 | CCOc1cc(C(=O)NC2CC(C)(C)NC(C)(C)C2)ccc1-c1nc2cc(Cl)ccc2[nH]1 | 0.992
92 | CN(CCC(O)c1ccc(Cl)c(Cl)c1)CC1CC1C(=O)c1ccccc1 (configuration not stated) | 0.794
93 | COc1ccc(-c2cc(NCc3ccc(-n4ccnc4)cc3)nc(Nc3ccccc3)n2)cc1 | 0.966
94 | CCOc1ccccc1NC(=O)C(Sc1nc(C)cc(C)c1C#N)c1ccccc1 (configuration not stated) | 0.373
95 | CCC(C)c1ccc(NC(=O)Nc2ccnc3ccccc23)cc1 (configuration not stated) | 0.625
96 | CCCCCC(C)N/C(=N/c1ccccc1Br)Nc1ccc([N+](=O)[O-])cc1O (configuration not stated) | 0.615
97 | O=[N+]([O-])c1ccc(Oc2ccccc2CNCC2CCN(CC3CCCCC3)CC2)cc1 | 0.903
